# Active and inactive are the calls of the source. The calls are words filed in the database; no cut-off is given here.
# How the values were obtained:
# [1] = Cytotoxicity against HUVEC cells assessed as reduction in cell viability incubated for 48 hrs by MTT assay; type: toxicity, cell-based; conditions: human
# [2] = Cytotoxicity against HK-2 cells assessed as reduction in cell viability incubated for 48 hrs by MTT assay; type: toxicity, cell-based; conditions: human
# HCT-116 [3] = assay: Antiproliferative activity against human HCT-116 cells assessed as reduction in cell viability incubated for 48 hrs by MTT assay; type: functional, cell-based; conditions: HCT-116, 48 h
# 786-0 = assay: Antiproliferative activity against human 786-0 cells assessed as reduction in cell viability incubated for 48 hrs by MTT assay; type: functional, cell-based; conditions: 786-0, 48 h
# HCC827 = assay: Antiproliferative activity against human HCC827 cells assessed as reduction in cell viability incubated for 48 hrs by MTT assay; type: functional, cell-based; conditions: HCC827, 48 h
# K562 = assay: Antiproliferative activity against human K562 cells assessed as reduction in cell viability incubated for 48 hrs by MTT assay; type: functional, cell-based; conditions: K562, 48 h
# MGC-803 = assay: Antiproliferative activity against human MGC-803 cells assessed as reduction in cell viability incubated for 48 hrs by MTT assay; type: functional, cell-based; conditions: MGC-803, 48 h
# HepG2 = assay: Antiproliferative activity against human HepG2 cells assessed as reduction in cell viability incubated for 48 hrs by MTT assay; type: functional, cell-based; conditions: HepG2, 48 h
# HCT-116 [4] = assay: Inhibition of beta-tubulin expression in human HCT-116 cells at 0.2 to 0.8 uM incubated for 24 hrs by Western blot analysis; type: functional, cell-based; conditions: dose 0.2-0.8 µM
# HCT-116 [5] = assay: Induction of apoptosis in human HCT-116 cells assessed as increase in caspase-3 cleavage level at 0.2 to 0.8 uM incubated for 24 hrs by Western blot analysis; type: functional, cell-based; conditions: dose 0.2-0.8 µM
# HCT-116 [6] = assay: Induction of apoptosis in human HCT-116 cells assessed as increase in PARP cleavage at 0.2 to 0.8 uM incubated for 24 hrs by Western blot analysis; type: functional, cell-based; conditions: dose 0.2-0.8 µM
# HCT-116 [7] = assay: Induction of apoptosis in human HCT-116 cells assessed as downregulation of Bcl-2 protein at 0.2 to 0.8 uM measured within 24 hrs by Western blot analysis; type: functional, cell-based; conditions: dose 0.2-0.8 µM
# HCT-116 [8] = assay: Induction of apoptosis in human HCT-116 cells assessed as upregulation of Bax protein at 0.2 to 0.8 uM measured within 24 hrs by Western blot analysis; type: functional, cell-based; conditions: dose 0.2-0.8 µM
# HCT-116 [9] = assay: Cell cycle arrest in human HCT-116 cells assessed as accumulation of cells at G2/M phase by measuring decrease in CDK1 expression at 0.2 to 0.8 uM incubated for 24 hrs by Western blot analysis; type: functional, cell-based; conditions: dose 0.2-0.8 µM
# HCT-116 [10] = assay: Cell cycle arrest in human HCT-116 cells assessed as accumulation of cells at G2/M phase by measuring increase in cyclin B1 expression at 0.2 to 0.8 uM incubated for 24 hrs by Western blot analysis; type: functional, cell-based; conditions: dose 0.2-0.8 µM
# HCT-116 [11] = assay: Cell cycle arrest in human HCT-116 cells assessed as increase in p21 expression at 0.2 to 0.8 uM incubated for 24 hrs by Western blot analysis; type: functional, cell-based; conditions: dose 0.2-0.8 µM
# HCT-116 [12] = assay: Cell cycle arrest in human HCT-116 cells assessed as increase in p53 expression at 0.2 to 0.8 uM incubated for 24 hrs by Western blot analysis; type: functional, cell-based; conditions: dose 0.2-0.8 µM
# HCT-116 [13] = assay: Inhibition of colony formation in human HCT-116 cells at 0.4 to 0.8 uM measured after 10 days by crystal violet staining based inverted microscopic analysis; type: functional, cell-based; conditions: dose 0.4-0.8 µM, time 10.0 day
# HCT-116 [14] = assay: Inhibition of wound closure in human HCT-116 cells at 0.4 uM measured after 48 hrs by wound healing assay; type: functional, cell-based
# HCT-116 [15] = assay: Induction of apoptosis in human HCT-116 cells assessed as cell fragmentation at 0.4 to 0.8 microM measured after 24 hrs by microscopic analysis; type: functional, cell-based; conditions: dose 0.4-0.8 µM
# HCT-116 [16] = assay: Induction of apoptosis in human HCT-116 cells assessed as morphological changes at 0.4 to 0.8 microM measured after 24 hrs by microscopic analysis; type: functional, cell-based; conditions: dose 0.4-0.8 µM
# HCT-116 [17] = assay: Induction of apoptosis in human HCT-116 cells assessed as morphological changes at 0.4 to 0.8 microM measured after 48 hrs by microscopic analysis; type: functional, cell-based; conditions: dose 0.4-0.8 µM
# HCT-116 [18] = assay: Induction of apoptosis in human HCT-116 cells at 0.4 to 0.8 uM incubated for 24 hrs by Annexin V-FITC/PI staining based flow cytometric analysis; type: functional, cell-based; conditions: dose 0.4-0.8 µM
# HCT-116 [19] = assay: Cell cycle arrest in human HCT-116 cells assessed as accumulation of cells at G2/M phase at 0.4 to 0.8 uM incubated for 24 hrs by PI staining based flow cytometric analysis; type: functional; conditions: dose 0.4-0.8 µM
# HCT-116 [20] = assay: Induction of apoptosis in human HCT-116 cells assessed as increase in caspase-3 activation level at 0.8 uM measured after 24 hrs by Western blot analysis; type: functional, cell-based
# HCT-116 [21] = assay: Induction of apoptosis in human HCT-116 cells assessed as increase in PARP activation level at 0.8 uM measured after 24 hrs by Western blot analysis; type: functional, cell-based
# HCT-116 [22] = assay: Induction of apoptosis in human HCT-116 cells assessed as downregulation of Bcl-2 protein at 0.8 uM measured after 24 hrs by Western blot analysis; type: functional, cell-based
# HCT-116 [23] = assay: Induction of apoptosis in human HCT-116 cells assessed as upregulation of Bax protein at 0.8 uM measured after 24 hrs by Western blot analysis; type: functional, cell-based
# HCT-116 [24] = assay: Cell cycle arrest in human HCT-116 cells assessed as decrease in CDK1 expression at 0.8 uM incubated for 24 hrs by Western blot analysis; type: functional, cell-based
# HCT-116 [25] = assay: Cell cycle arrest in human HCT-116 cells assessed as increase in cyclin B1 expression at 0.8 uM incubated for 24 hrs by Western blot analysis; type: functional, cell-based
# HCT-116 [26] = assay: Cell cycle arrest in human HCT-116 cells assessed as increase in p21 expression at 0.8 uM incubated for 24 hrs by Western blot analysis; type: functional, cell-based
# HCT-116 [27] = assay: Cell cycle arrest in human HCT-116 cells assessed as increase in p53 expression at 0.8 uM incubated for 24 hrs by Western blot analysis; type: functional, cell-based
# HCT-116 [28] = assay: Inhibition of beta-tubulin expression in human HCT-116 cells at 0.8 uM incubated for 24 hrs by Western blot analysis; type: functional, cell-based
# [29] = Toxicity in SPF-grade Balb/c nude mouse xenografted with human HCT-116 cells assessed as average body weight at 12 mg/kg, ip measured after 10 days; type: organism-based; conditions: in vivo, 240 h, time 10 day
# HCT-116 [30] = assay: Antitumor activity against human HCT-116 cells xenografted in SPF-grade Balb/c nude mouse model assessed as reduction in tumor size at 12 mg/kg, ip administered daily for 11 days by photographic analysis; type: functional, organism-based; conditions: time 11.0 day
# HCT-116 [31] = assay: Antitumor activity against human HCT-116 cells xenografted in SPF-grade Balb/c nude mouse model assessed as tumor growth inhibition at 12 mg/kg, ip administered daily for 11 days relative to control; type: functional; conditions: HCT-116, 264 h, time 11 day, read-out: TGI
# HCT-116 [32] = assay: Antitumor activity against human HCT-116 cells xenografted in SPF-grade Balb/c nude mouse model assessed as tumor growth inhibition at 45.17 mg/kg, ip administered daily for 11 days relative to control; type: functional; conditions: HCT-116, 264 h, time 11 day, read-out: TGI
# HCT-116 [33] = assay: Antitumor activity against human HCT-116 cells xenografted in SPF-grade Balb/c nude mouse model assessed as inhibition of tumor cell growth at 12 mg/kg, ip administered daily for 11 days by H and E staining based analysis; type: functional, organism-based; conditions: time 11.0 day
smiles,measurement,setting,value
COc1ccc(CN2C(=O)C(=O)c3cc(-c4ccc(O)cc4)ccc32)cc1,IC50 at 48 h,[1],18.1 µM
same,IC50 at 48 h,[2],13.9 µM
same,IC50,HCT-116 [3],0.33 µM
same,IC50,786-0,26.6 µM
same,IC50,HCC827,10.1 µM
same,IC50,K562,0.8 µM
same,IC50,MGC-803,20.6 µM
same,IC50,HepG2,> 100 µM
same,inhibition,HCT-116 [4],Active
same,Activity,HCT-116 [5],Active
same,Activity,HCT-116 [6],Active
same,Activity,HCT-116 [7],Active; Activation Of Intrinsic Apoptotic Pathway Observed
same,Activity,HCT-116 [8],Active; Activation Of Intrinsic Apoptotic Pathway Observed
same,Activity,HCT-116 [9],Active
same,Activity,HCT-116 [10],Active
same,Activity,HCT-116 [11],Active; Activation Of P53-Medisted Signaling Observed
same,Activity,HCT-116 [12],Active; Activation Of P53-Medisted Signaling Observed
same,inhibition,HCT-116 [13],Active
same,inhibition,HCT-116 [14],Active
same,Activity,HCT-116 [15],Active
same,Activity,HCT-116 [16],Active
same,Activity,HCT-116 [17],Active; More Evident Apoptotic State Observed
same,Activity,HCT-116 [18],Active
same,Activity,HCT-116 [19],Active
same,Activity,HCT-116 [20],Active
same,Activity,HCT-116 [21],Active
same,Activity,HCT-116 [22],Active
same,Activity,HCT-116 [23],Active
same,Activity,HCT-116 [24],Active
same,Activity,HCT-116 [25],Active
same,Activity,HCT-116 [26],Active
same,Activity,HCT-116 [27],Active
same,inhibition,HCT-116 [28],Active
same,Activity,[29],~ 10 g
same,Activity,HCT-116 [30],Active
same,inhibition in vivo at 12 mg/kg,HCT-116 [31],49%
same,inhibition in vivo at 45.17 mg/kg,HCT-116 [32],61%
same,Activity,HCT-116 [33],Active
